According to patent US11479587B2, “Cationic intrinsically disordered antimicrobial peptides” (priority 2016, dated 2022):
Marks after values point to notes of the source that are not given here. No end group written: not given here. *: point of attachment. Palmitoyl = CCCCCCCCCCCCCCCC(=O)*; Myristoyl = CCCCCCCCCCCCCC(=O)*

Assays:
[1] = test system: S. aureus ATCC 6538; assay: CFU-assay, S. aureus-cidal activity; assay type: cell-based, Staphylococcus aureus
Procedure: Thus, within the present invention, the antimicrobial activity is generally measured in nutrient deficient 10 mM sodium phosphate buffer pH 5.5, containing 0.25% glucose, using the CFU-assay according to Steinberg and Lehrer, 1997 (supra), unless otherwise indicated. The CFU-assay allows determination of the minimal bactericidal concentration (MBC, e.g., MBC90 and MBC100; i.e. the concentration of compound required to achieve a specified reduction in bacterial cell number (microbial death or killing)).
Various peptides corresponding to repeat domains of hornerin (HR 1-11: HRNR 2606-2628; HR 1-17: HRNR 2656-2684 and HR 1-18: HRNR 2656-2677) were tested for P. aeruginosa ATCC 10145-cidal activity in 10 mM Na-phosphate buffer pH 5.5, containing 0.25% glucose by counting the numbers of colonies of surviving bacteria at serial, twofold dilutions from 300 μg/ml down to 19 ng/ml of each peptide (CFU-assay; Steinberg and Lehrer, 1997, Methods Mol. Biol. 78, 169-186).
Staphylococcus aureus is a major skin pathogen, which causes skin infections, in particular in atopic dermatitis. The sensitivity of S. aureus ATCC 6538 towards several CIDAMPs was assessed using the CFU-assay as above (see Example 1). HR 1-18, which lacks S. aureus.-bactericidal activity, is converted in a S. aureus-cidal peptide, when all His are replaced by Arg (HR 1-18 4H-4R; see Table 13 and FIG. 9). […] HR 1-18 4H-4R is rich in Ser and Arg and contains a single Leu residue. When this single Leu was replaced by Gly in S. aureus-cidal HR 1-18 4H-4R (forming HR 1-18 4H-4R/L-G), S. aureus-cidal activity was abolished at both pH 7.0 and pH 5.5 (see Table 13 and FIG. 9).

[2] = test system: P. aeruginosa ATCC 10145; assay: CFU-assay, P. aeruginosa-cidal activity; assay type: cell-based, Pseudomonas aeruginosa

GQHGSSSGHSSTHGQHGSASGQSSSC-Pal* (GQHGSSSGHSSTHGQHGSASGQSSSC(Pal)-NH2) [S-Pal-HRNR2004-2029]
MBC90 ([1]; pH 5.5, 0.25% glucose): 0.59 µg/mL

GQHGSSSGHSSTHGQHGSTSGQSSSC-Pal* (GQHGSSSGHSSTHGQHGSTSGQSSSC(Pal)-NH2) [S-Pal-HRNR598-623]
MBC90 ([1]; pH 5.5, 0.25% glucose): 2.35 µg/mL
MBC100 ([1]; pH 5.5, 0.25% glucose): >150 µg/mL

GRHGSGSGQSSGFGHHESSSWQSSGC-Pal* (GRHGSGSGQSSGFGHHESSSWQSSGC(Palmitoyl)-NH2) [S-Pal-HRNR1389-1414]
MBC90 ([1]; pH 5.5, 0.25% glucose): 1.18 µg/mL
MBC100 ([1]; pH 5.5, 0.25% glucose): 18.8 µg/mL

GRRGSGGGRSSSRGGRGSGSGR (Modified peptide derived from human hornerin (HR 1-18 4H-4R/L-G))
MBC90 ([2]; pH 5.0, 0.25% glucose): 0.038 µg/mL
MBC100 ([2]; pH 5.0, 0.25% glucose): 0.15 µg/mL
MBC90 ([1]; pH 5.5, 0.25% glucose): >300 µg/mL
MBC100 ([1]; pH 5.5, 0.25% glucose): >300 µg/mL
S. aureus-cidal activity (in words) ([1]; pH 7.0 and pH 5.5): abolished

HTHSGHTHSQARSQHGESESTVHKR (Peptide derived from human filaggrin-2 (FLG-2 1894-1918)) [FLG-21894-1918]
MBC90 ([2]; pH 5.5, 0.25% glucose): 0.038 µg/mL
MBC100 ([2]; pH 5.5, 0.25% glucose): 0.3 µg/mL

LGHSSSHGQHGSGSGRSSSRGPYESRLGH [HR 1-36 HRNR2663-2690]
MBC90 ([2]; pH 5.5, 0.25% glucose): 0.15 µg/mL
MBC100 ([2]; pH 5.5, 0.25% glucose): 2.35 µg/mL

Myr-GRRGSGLGRSSSRGQRGSGSGR (Myristoyl-GRRGSGLGRSSSRGQRGSGSGR) [Myr-HR 1-18 HR]
MBC90 ([1]; pH 7.3, 1% TSB): 18.75 µg/mL
MBC100 ([1]; pH 7.3, 1% TSB): 75 µg/mL

Pal-CGQHGATSGQSSSHGQHGSGSSQSSR (C(Palmitoyl)GQHGATSGQSSSHGQHGSGSSQSSR) [S-Pal-HRNR623-648]
MBC90 ([1]; pH 5.5, 0.25% glucose): 2.35 µg/mL
MBC100 ([1]; pH 5.5, 0.25% glucose): >150 µg/mL

Pal-CGQHGATSSGQSSSHGQHGSGSSQSSGYGR (C(Palmitoyl)GQHGATSSGQSSSHGQHGSGSSQSSGYGR) [S-Pal-HRNR1089-1117]
MBC90 ([1]; pH 5.5, 0.25% glucose): >150 µg/mL
MBC100 ([1]; pH 5.5, 0.25% glucose): >150 µg/mL

Pal-SHHRHFRSHQCRRQRSNSCDR (Palmitoyl-SHHRHFRSHQCRRQRSNSCDR; cysteine pairing not given here) [Pal-LCE3C55-75]
MBC90 ([1]; pH 5.5, 0.25% glucose): 0.15 µg/mL
MBC100 ([1]; pH 5.5, 0.25% glucose): 0.59 µg/mL

QGSHHEQSVNRSGHSGSHHSHTTSQGR (Peptide derived from human filaggrin (FLG 528-554)) [FLG528-554]
MBC90 ([2]; pH 5.5, 0.25% glucose): 0.15 µg/mL
MBC100 ([2]; pH 5.5, 0.25% glucose): 0.59 µg/mL

RGR (Synthetic cationic intrinsically disordered antimicrobial peptide (GR3))
MBC90 ([2]; pH 5.5, 0.25% glucose): 150 µM
MBC100 ([2]; pH 5.5, 0.25% glucose): >930 µM

RGRGR (Synthetic cationic intrinsically disordered antimicrobial peptide (GR5))
MBC90 ([2]; pH 5.5, 0.25% glucose): 6.1 µM
MBC100 ([2]; pH 5.5, 0.25% glucose): >500 µM

RGRGRGR (Synthetic cationic intrinsically disordered antimicrobial peptide (GR7))
MBC90 ([2]; pH 5.5, 0.25% glucose): 0.31 µM
MBC100 ([2]; pH 5.5, 0.25% glucose): 2.8 µM

RGRGRGRGR (Synthetic cationic intrinsically disordered antimicrobial peptide (GR9))
MBC90 ([2]; pH 5.5, 0.25% glucose): 0.22 µM
MBC99 ([2]; pH 5.5, 0.25% glucose): MBC99: 10.2 μM
MBC100 ([2]; pH 5.5, 0.25% glucose): >400, μM

RGSGSGHQGHSSSHGLGSGHRG (Peptide with reverse sequence to 18 amino acid peptide derived from human hornerin (revHR 1-18))
MBC90 ([2]; pH 5.0, 0.25% glucose): <0.019 µg/mL
MBC100 ([2]; pH 5.0, 0.25% glucose): 0.075 µg/mL

RGSRSGQSSRGERR (Modified peptide derived from human hornerin (HR 1-11s 2H2R-14))
MBC90 ([2]; pH 5.5, 0.25% glucose): 0.15 µg/mL
MBC100 ([2]; pH 5.5, 0.25% glucose): 4.7 µg/mL

RGSRSGQSSRGERRGSSSGSSSR (Modified peptide derived from human hornerin (HR 1-11 3H3R))
MBC90 ([2]; pH 5.5, 0.25% glucose): 0.3 µg/mL
MBC100 ([2]; pH 5.5, 0.25% glucose): 9.375* μg/ml

RHGSGLGHSSSH (Peptide derived from human hornerin (HR 1-27 HRNR 2657-2668)) [HR 1-27 HRNR2657-2668]
MBC90 ([2]; pH 5.5, 0.25% glucose): 75-100* μg/ml

RHGSGLGHSSSHGQH (Peptide derived from human hornerin (HR 1-26 HRNR 2657-2671)) [HR 1-26 HRNR2657-2671]
MBC100 ([2]; pH 5.5, 0.25% glucose): 4.7-75* μg/ml

RQSPSYGRHGSGSGR (Peptide derived from human hornerin (HR 2-14 HRNR 1136-1150)) [HR 2-14 HRNR1136-1150]
MBC90 ([2]; pH 5.5, 1% TSB): 300 µg/mL
MBC100 ([2]; pH 5.5, 1% TSB): >300 µg/mL

SGHSSVFGQHESGSGHSSAYSQHGSGSGHFC-Pal* (SGHSSVFGQHESGSGHSSAYSQHGSGSGHFC(Palmitoyl)-NH2) [S-Pal-HRNR1748-1778]
MBC100 ([1]; pH 5.5): 2.8 µM
MBC90 ([1]; pH 5.5, 0.25% glucose): 0.3 µg/mL
MBC100 ([1]; pH 5.5, 0.25% glucose): 9.38 µg/mL
MBC90 ([1]; pH 5.5, 0.25% glucose (text)): 0.09 µM

SLSSGHGSGHGHQRGGHRSGSG (Peptide with scrambled amino acid sequence of a 18 amino acid peptide derived from human hornerin (scrHR 1-18))
MBC90 ([2]; pH 5.0, 0.25% glucose): <0.019 µg/mL
MBC100 ([2]; pH 5.0, 0.25% glucose): 0.075 µg/mL

SRQSPSYGRHGSGR (Modified peptide derived from human hornerin (HR 2-15 HRNR 1136-1150 S1148R)) [HR 2-15 HRNR1136-1150 S1148R]
MBC90 ([2]; pH 5.5, 1% TSB): 75 µg/mL
MBC100 ([2]; pH 5.5, 1% TSB): >300 µg/mL

TAGRRGSGH (Peptide derived from human filaggrin-2 (FLG-2 2097-2105)) [FLG-22097-2105]
MBC90 ([2]; pH 5.5, 0.25% glucose): >300 µg/mL
MBC100 ([2]; pH 5.5, 0.25% glucose): >300 µg/mL

THEHEQSHQRRDRQTHEDKQNRQR (Peptide derived from human repetin (RPTN 747-770)) [RPTN747-770]
MBC90 ([2]; pH 5.5, 0.25% glucose): 0.3 µg/mL
MBC100 ([2]; pH 5.5, 0.25% glucose): 150 µg/mL

B1: SQHKSSSGQSSGYSQHGSGSGHSSGYGQHGSRSGQSSRGDRHRSSSGSSSSYGQHGSGSRQSL (peptide)
chain: SQHKSSSGQSSGYSQHGSGSGHSSGYGQHGSRSGQSSRGDRHRSSSGSSSSYGQHGSGSRQSL
modifications: Peptide derived from human hornerin (HRNR 232-294)
MBC90 ([2]; pH 5.5, 0.25% glucose): 0.30 µg/mL
MBC100 ([2]; pH 5.5, 0.25% glucose): 2.35 µg/mL

B2: GHGRQGSGSRQSPSHVRHGSGSGHSSSHGQHGSGSSYSYSRGHYESGSGQTSGFGQHESGSGQSSGY (peptide)
chain: GHGRQGSGSRQSPSHVRHGSGSGHSSSHGQHGSGSSYSYSRGHYESGSGQTSGFGQHESGSGQSSGY
modifications: Peptide derived from human hornerin (HRNR 295-361)
MBC90 ([2]; pH 5.5, 0.25% glucose): 0.15 µg/mL
MBC100 ([2]; pH 5.5, 0.25% glucose): 0.59 µg/mL

B3: GHKSSSGQSSGYTQHGSGSGHSSSYEQHGSRSGQSSRSEQHGSSSGSSSSYGQHGSGSRQSL (peptide)
chain: GHKSSSGQSSGYTQHGSGSGHSSSYEQHGSRSGQSSRSEQHGSSSGSSSSYGQHGSGSRQSL
modifications: Peptide derived from human hornerin (HRNR 933-994)
MBC90 ([2]; pH 5.5, 0.25% glucose): 0.3 µg/mL
MBC100 ([2]; pH 5.5, 0.25% glucose): 2.35 µg/mL

B4: LGHGQHGSGSGQSPSPSRGRHGSGSGQSSSYGPYRSGSGWSSSRGPYESGSGHSSGLGHRER (peptide)
chain: LGHGQHGSGSGQSPSPSRGRHGSGSGQSSSYGPYRSGSGWSSSRGPYESGSGHSSGLGHRER
modifications: Peptide derived from human hornerin (HRNR 995-1056)
MBC90 ([2]; pH 5.5, 0.25% glucose): 0.3 µg/mL
MBC100 ([2]; pH 5.5, 0.25% glucose): 2.35 µg/mL
